Measurements taken from US4686231A, “Inhibition of 5-lipoxygenase products” (SmithKline Beckman Corporation, priority 1986, dated 1987).

Legend:
[1] = test system: area of infarction following coronary occlusion; conditions: dogs; cited from earlier work
[2] = test system: Arachidonic acid-induced ear swelling; test: Arachidonic acid-induced mouse ear inflammation (ear swelling); format: in vivo, male Balb/c mice; conditions: for antiinflammatory activity (mouse ear edema): p.o.
Procedure: In the following Examples male Balb/c mice (20-28 g) were used. All mice were obtained from Charles River Breeding Laboratories, Kingston, N.Y. Within a single experiment, mice were sex and age matched.
The compounds of Formula (I), indomethacin, naproxen, and ibuprofen were each used as the free base. The compounds were homogenized in 0.5% tagacanth. Compounds were administered by gavage at the indicated dose in a final volume of 10 ml/kg. The compounds of Formula (I) were solubilized in dimethylacetamide and diluted with olive oil for subcantaneous administration.
Arachidonic acid in acetone (2 mg/20 μl) was applied to the inner surface of the left ear. The thickness of both ears was then measured with a dial micrometer one hour after treatment, and the […] were expressed as the change in thickness (10^-3 cm) between treated and untreated ears.
Test compounds were given orally in 0.5% tragacanth at the times indicated in the text prior to the topical application of arachidonic acid.
Parenteral administration of compound was accomplished by subcutaneous injection of solution as indicated.

5-lipoxygenase [3] = target: T1, 5-lipoxygenase (Rattus norvegicus, UniProt P12527); test: 5-lipoxygenase activity: LTB4 production by RBL-1 high speed supernatant; format: biochemical; conditions: for IC50: RBL1 high speed supernatant, read-out: 5LO IC50 (LTB4 Production)
T1 construct: The activities of these enzymes in extracts of RBL-1 cells were assayed; host or cells: RBL-1 cells, supernatant of broken cell extract
T1 sequence (P12527 1-673): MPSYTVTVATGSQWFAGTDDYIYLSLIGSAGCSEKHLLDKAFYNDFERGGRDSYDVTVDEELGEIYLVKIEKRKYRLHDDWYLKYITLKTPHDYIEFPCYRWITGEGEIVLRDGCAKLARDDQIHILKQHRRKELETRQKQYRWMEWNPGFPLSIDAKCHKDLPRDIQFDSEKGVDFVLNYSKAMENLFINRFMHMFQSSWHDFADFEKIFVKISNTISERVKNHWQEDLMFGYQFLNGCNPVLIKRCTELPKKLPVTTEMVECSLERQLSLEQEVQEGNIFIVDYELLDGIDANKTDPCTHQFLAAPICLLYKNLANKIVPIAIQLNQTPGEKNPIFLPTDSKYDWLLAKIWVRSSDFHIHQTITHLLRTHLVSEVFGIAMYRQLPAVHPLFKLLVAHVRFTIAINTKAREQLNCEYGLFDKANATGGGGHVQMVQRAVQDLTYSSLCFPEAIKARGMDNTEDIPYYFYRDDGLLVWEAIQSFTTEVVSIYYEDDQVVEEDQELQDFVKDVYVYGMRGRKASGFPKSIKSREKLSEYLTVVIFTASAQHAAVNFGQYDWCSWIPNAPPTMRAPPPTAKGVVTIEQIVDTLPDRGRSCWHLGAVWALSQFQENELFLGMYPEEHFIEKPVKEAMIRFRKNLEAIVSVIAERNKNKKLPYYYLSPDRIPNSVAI
Procedure: (§1) For in vitro experiments, compounds were dissolved at appropriate concentrations in ethanol (final concentration μ1.0%) and then diluted to final concentrations using the buffers indicated in the text.
(§2) The activities of these enzymes in extracts of RBL-1 cells were assayed using the method of Jakschik and Lee, Nature, 287, 51-52 (1980). RBL-1 cells were obtained from the American Type Culture Collection (#CRL 1378) and were grown at 37° C. (5% CO2 in air) in spinner culture in MEM supplemented with 10% heat inactivated fetal calf serum. Harvested cells were washed with 50 mM sodium phosphate buffer, pH 7.0, containing 1 mM EDTA and 0.1% galatin, resuspended in fresh buffer (5×10^7 cells/ml) and disrupted by nitrogen cavitation using the Parr bomb at 750 psi for 10 min. The broken cell extract was then centrifuged at 10,000×g for 60 minutes (min). Aliquots (0.25 mls) of the supernatant were preincubated with or without drugs for 10 min, after which 10 μl CaCl2 (2 mM) of 2.5 mM arachidonic acid-1-^14 C (final concentration was […]; specific activity 20,000 dpm/nmole). After incubation for 5 min at […], the reaction was terminated by addition of 2 volumes (0.5 ml) ice cold acetone and the sample was allowed to deproteinize on ice for 10 min prior to centrifugation at 1,000×gfor 10 min. The deproteinized supernatant was adjusted to pH 3.5 with 2N formic acid and extracted with 2 volumes of ice cold ethyl acetate. The extracted samples were dried under argon, redissolved in ethyl acetate and applied to Whatman LK5D thin layer chromatography (TLC) plates which were developed using the A-9 solvent system [organic phase of ethyl acetate:2,2,5-trimethylpentane:acetic acid:water (110:50:20:10)] described by Hamberg and Samuelsson, J. Bio. Chem., 241, 257-263 (1966). Arachidonic acid, 5-HETE, LTB4 and PGD2 were quantified with a Berthold LB 2832 autoscanner.
(§3) Drug-induced effects on enzyme activities are described as the concentration of drug causing a 50% inhibition of metabolite synthesis (IC50).

5-lipoxygenase [4] = target: T1, 5-lipoxygenase; test: 5-lipoxygenase activity: 5-HETE production by RBL-1 high speed supernatant; format: biochemical; conditions: RBL1 high speed supernatant; read-out: 5LO IC50 (5-HETE Production)
Procedure: as §1, §2, §3

[5] = test system: LTC4 production by human monocytes; test: LTC4 production by human monocytes; format: cell-based; conditions: Monocyte, A23187-stimulated, 3 hours, drug added 30 minutes prior
Procedure: as §1
One of the compounds of Formula (I), i.e., Compound Number 8 from Table 1, was evaluated for its ability to inhibit the production of LTC4 by human monocytes according to the following protocol.
Human monocytes were prepared from whole blood supplied by the American Red Cross. The blood was fractionated by a two-step procedure employing sedimentation on Ficoll followed by sedimentation on Percoll. The mononuclear cell fraction recovered was composed of 80-90% monocytes with the remainder of the cells being predominant lymphocytes. The monocytes were plated at 1×10^6 cells per well in a Costar 24 well tissue culture plat and allowed to adhere for one hour at 37° C. Non-adherent cells were removed by washing. The cells were stimulated with […] of A23187 calcium ionophore for 3 hours at 37° C. to induce LTC-4 produced when drugs were evaluated. They were added to the cells 30 minutes prior to the A23187. Supernatants were collected, clarified by centrifugation and store frozed at -20° C. until assay. The LTC-4 content was determined by using a New England Nuclear Leukotriene C-4 (^3 H) RIA Kit as per instructions.

psoriasis = conditions: in vivo; cited from earlier work
lipoxygenase = conditions: in vitro; cited from earlier work
[6] = test system: Arachidonic acid-induced ear swelling; test: Arachidonic acid-induced mouse ear inflammation (ear swelling); format: in vivo, male Balb/c mice
[7] = test system: LTB4 and 5-HETE production; conditions: in vitro; cited from earlier work
rheumatoid arthritis = conditions: preliminary observation; cited from earlier work
[8] = 50 mg/kg s.c. or i.p., 2 mg arachidonic acid, 1 hour, * p .05, ** p .01, *** p .001

| SMILES | % Inhibition of Ear Swelling [2, 8] [%] | IC50 (5-lipoxygenase [3]) [µM] | IC50 (5-lipoxygenase [4]) [µM] | other results |
| --- | --- | --- | --- | --- |
| NC1=NN(c2cccc(C(F)(F)F)c2)CC1 [BW755-C] | – | – | – | area of infarction following coronary occlusion [1]: reduced |
| COc1ccc(-c2nc(SC)n(C)c2-c2ccc(OC)cc2)cc1 [Compound 1] | 51 | 13 | 13 | – |
| O=S(=O)(c1nc(-c2ccc(F)cc2)c(-c2ccc(F)cc2)[nH]1)C(F)(F)C(F)F [Compound 2] | 41 | 6.6 | 16 | – |
| CCSc1nc(-c2ccc(OC)cc2)c(-c2ccc(OC)cc2)n1CC [Compound 3] | – | 8.4 | 10.4 | – |
| COc1ccc(-c2nc(NC#N)[nH]c2-c2ccc(OC)cc2)cc1 [Compound 4, 4,5-Bis(4-methoxyphenyl)-2-cyanamido-imidazole or 4,5-Bis(4-methoxyphenyl)-2-amino-1-cyano-imidazole] | 46 | 1.5 | 3.1 | – |
| N#CNc1nc(-c2ccc(F)cc2)c(-c2ccc(F)cc2)[nH]1 [Compound 5, 4,5-Bis(4-fluorophenyl)-2-cyanamido-imidazole or 4,5-Bis(4-fluorophenyl)-2-amino-1-cyano-imidazole] | 59 | 1 | 8 | – |
| COc1ccc(-c2nc(C(F)(F)F)[nH]c2-c2ccc(OC)cc2)cc1 [Compound 6] | – | 1.1 | 0.7 | % Inhibition of Ear Swelling ([2]; 50 mg/kg, oral dosing (p.o.), ** p .01): 28% |
| Fc1ccc(-c2nc(-c3ccc(F)cc3)c(-c3ccc(F)cc3)[nH]2)cc1 [Compound 7] | 15 | 10 | 10 | – |
| Fc1ccc(-c2[nH]c(S)nc2-c2ccncc2)cc1 [Compound 8] | – | 1.5 | 17 | IC50 [5]: 0.8 µM |
| Fc1ccc(-c2[nH]c(SC(F)(F)C(F)F)nc2-c2ccncc2)cc1 [Compound 9] | – | – | 95 | – |
| CC(C(=O)O)c1ccc2oc(-c3ccc(Cl)cc3)nc2c1 (centres unmarked) [benoxaprofen] | – | – | – | effect on psoriasis (psoriasis): promising effect; lipoxygenase inhibitory activity (lipoxygenase): in vitro lipoxygenase inhibitory activity |
| CC(C)Cc1ccc(C(C)C(=O)O)cc1 (centres unmarked) [ibuprofen, reference compound] | – | – | – | antiinflammatory activity (mouse ear edema) ([2]; 250 mg/kg): did not exhibit detectable antiinflammatory activity |
| COc1ccc2c(c1)c(CC(=O)O)c(C)n2C(=O)c1ccc(Cl)cc1 [indomethacin, reference compound] | – | – | – | antiinflammatory activity (mouse ear edema) ([2]; 10 mg/kg): did not exhibit detectable antiinflammatory activity; reduction of inflammation (mouse ear model) ([2]; arachidonic acid-induced): did not reduce inflammation or cell infiltration; inhibition of 5-lipoxygenase products (RBL-1 extract) (5-lipoxygenase [3]; concentrations up to 10^-4 M): inactive; reduction of cell infiltration (mouse ear model) [6]: did not reduce inflammation or cell infiltration |
| COc1ccc2cc([C@H](C)C(=O)O)ccc2c1 [naproxen, reference compound] | – | – | – | antiinflammatory activity (mouse ear edema) ([2]; 100 mg/kg): did not exhibit detectable antiinflammatory activity |
| O=C(O)c1cc(/N=N/c2ccc(S(=O)(=O)Nc3ccccn3)cc2)ccc1O [sulfasalazine] | – | – | – | inhibition of LTB4 and 5-HETE production [7]: inhibit LTB4 and 5-HETE production in vitro; efficacy in rheumatoid arthritic patients (rheumatoid arthritis): efficacy, including remission |
